Entries after “also recorded” stand apart in the source; their conditions may differ. Marks after values point to notes of the source that are not given here.
Assays:
[1] = system: BALB/c mice subjected to cecal ligation and puncture; test: Survival after cecal ligation and puncture 7 days after trauma, NS-398 twice a day over 7 days; format: in vivo
Excerpt: All cytokine results are reported as mean±SEM of 8 mice per group. The ANOVA was used to determine the significance of the differences between means of traumatized±treatment versus control±treatment groups. A P value of <0.05 was considered significant. For survival studies, Kaplan-Meier (Log-rank) statistical analysis was used to compare all four groups studied. A P value of <0.05 was considered significant.
To evaluate the biological relevance of NS-398, mice were randomized into the four treatment groups. After 7 days, all mice were subjected to cecal ligation and puncture (CLP) and followed for survival over 10 days, when remaining mice were euthanized. […] Only 9% of control mice survived after 200 hours compared to a significant increase in survival of trauma+NS-398 treated mice in which 45% survived.
(§1) BALB/C mice (n=8/group) were given 10mg/kg NS398 intraperitoneally BID for 7 days, starting immediately after sham injury or trauma (femur fracture+40% hemorrhage). Four groups, sham+placebo (C); sham+NS398 (CN); trauma+placebo (T); or trauma+NS398 (TN) were studied. On day 7 after trauma, mice were sacrificed and splenic macrophages evaluated for PGE2, TNF-α and NO production (via Student's t-test). In a separate study, mice (n=10-11/group) were traumatized and given NS398 for 7 days. On day 7, cecal ligation and puncture was performed, and mice evaluated for survival over 3 weeks (via Log-rank test).

EP4 receptor = EP4 receptor expression in LPS stimulated human PBMC's via RT-PCR; format: cell-based; settings: PBMC's after injury, co-incubation with NS-398
Experimental: Serial dilutions were made to co-culture cells with a final concentration of […] NS-398 in a 0.1% DMSO. Control and trauma groups were co-cultured with 0.1% DMSO vehicle for comparisons with NS-398 treated groups.

[2] = system: BALB/c mice given a septic challenge by cecal ligation and puncture; test: Survival after septic challenge (cecal ligation and puncture) on day 7 after trauma, 3 doses of NS-398 within 24 h; format: in vivo
Excerpt: A value of p<0.05 was considered significant. […] A value of p<0.05 was considered significant.

COX-2 mRNA [3] = test: COX-2 mRNA expression in LPS stimulated splenic macrophages by RT-PCR (3 doses within 24 h); format: in vivo, BALB/c mice; settings: traumatized mice + NS-398, 3 doses within 24 h, day 7
Experimental: Isolated splenic macrophages were treated with lipopolysaccharide (LPS) (10 ng/ml) for six hours.
To evaluate the relative expression of COX-2 mRNA, splenic macrophages were treated as previously described and harvested by RT-PCR.

[4] = system: LPS stimulated splenic macrophages; test: Mediator production (PGE2, LTB4, TNF-α, NO, IL-6) by LPS stimulated splenic macrophages 7 days after trauma, NS-398 twice a day over 7 days; format: in vivo, BALB/c mice; settings: for NO: mean ± SEM
Experimental: Animals, Experimental Protocol, NS-398 preparation were as described in Example I. Macrophages were prepared as described initially under “Macrophage Preparation ” in Example I. After lysis of erythrocytes with ammonium chloride solution and centrifugation as described in Example I, macrophages were further prepared by resuspending the pellet in RPMI-1640 (Gibco BRL, Life Technologies Inc) containing 2 mmol/L L-glutamine, 100 U/mL penicillin, 100 μg/mL streptomycin, 0.25 μg/mL amphotericin B, and 10% heat-inactivated fetal calf serum (Gibco BRL, Life Technologies Inc), counted via hemocytometer and diluted to a final concentration of 5×10^6 cells/mL, and plated in 96 well plates in a volume of 0.2 mL per well. After allowing macrophages to adhere for 2 hours, the remaining cells were suctioned off and the macrophages were cultured in the +/−1 ng LPS 055:B5 (Sigma, St. Louis, Mo.) per mL at 37° C. in 5% carbon dioxide incubators. Supernatants were harvested at 24 hours and stored at −70° C. until analysis for batch enzyme-linked immunosorbent assay processing to determine prostaglandin and cytokine production.
NO was measured indirectly by NO2^− concentration using the Greiss reagent system (Promega, Madison, Wis). Protein was quantified using the BCA protein reagent (Pierce, Rockford, Ill.) and all measurements were normalized to protein content per well.
as §1

NF-κB = test: Electrophoretic mobility shift assay of nuclear NF-κB in splenic macrophages; format: in vivo, BALB/c mice; settings: NS-398 treatment after trauma, over 7 days
Experimental: NF-κB gel shift oligonucleotide 5′ AGTTGAGGGGACTTTCCCAGGC 3′ (Santa Cruz Laboratories, Santa Cruz, Calif.) was end labeled with (^32P)γATP using polynucleotide kinase T4 (Gibco BRL, Grand Island, N.Y.). End labeled probe was purified from unincorporated (^32P)-γATP using a purification column (Bio-Rad Laboratories) and recovered in tris-EDTA buffer. Samples consisted of adherent macrophages collected after 45 minutes stimulation with 10 ng/mL LPS. Adherent cells were scraped into 1 mL of cold HANKS balanced salt solution. The cell suspension was pelleted after centrifugation in a microcentrifuge for 10 seconds and resuspended in 400 μl cold Buffer A (10 mM HEPES-KOH pH 7.9 at 4° C., 1.5 mM MgCl2, 10 mM KCl, 0.5 mM dithiothreitol, 0.2 mM PMSF) by agitation of the tube. The cells were allowed to swell on ice for 10 minutes, and then vortexed for 10 seconds. Samples were centrifuged for 10 seconds and the supernatant fraction was saved at −70° C. for IκB analysis. The pellet was resuspended in 20-100 μl of cold buffer C (20 mM HEPES-KOH pH 7.9, 25% glycerol, 420 mM NaCl, 1.5 mM MgCl2. 0.2 mM EDTA, 0.5 mM dithiothreitol 0.2 mM PMSF) and incubated on ice for 20 minutes. […] Samples were subjected to electrophoretic separation on a non denaturing 5% poly-acrylamide gel at 30 mA using Tris borate EDTA for 45 minutes and analyzed by exposure to radiographic film (Kodak, Rochester, N.Y.).

COX-2 mRNA [5] = test: COX-2 mRNA in splenic macrophages by RT-PCR (NS-398 over 7 days); format: in vivo, BALB/c mice; settings: trauma + NS-398 over 7 days
Experimental: Isolated splenic macrophages were treated with LPS (10 ng/mL) for 6 hours. Extraction of mRNA was done with an RNA extraction kit (Qiagen, Inc.).

COX-2 = format: cell-based, human
Experimental: Isolated PBMC's from various groups were incubated for 18 hours at which time all groups were treated with 10 ng/mL lipopolysaccharaide (LPS) 055:B5 (Sigma, St. Louis, Mo.) for 6 hours RT-PCR samples were run in a blinded fashion. Extraction of mRNA was with an RNA extraction kit (Qiagen). Total mRNA (1 μg) was reverse transcribed in an RT mastermix (50 mM KCl, 10 mM tris-HCl, 5 mM MgCl2, 1 mM dNTP, 2.5 mM oligo d(T), 50 units of RT, 20 units of RNAse inhibitor, and nuclease free water; all reagents from Perkin-Elmer, Foster City, Calif.) with an initial 10 minute incubation at room temperature and then 42° C. for 10 minutes. […] The cDNA was run on a 1% agarose gel with 3 μL of ethidium bromide (10 mg/mL solution) and bands were visualized under UV transillumination and recorded in an image acquisition processing and analysis program (Eagle Eye 2, Stratagene).
NS-398 (N-[2-(cyclohexyloxy)-4-nitrophenyl]-methanesulfonamide) was obtained from Cayman Chemical (Ann Arbor, Mich.) and prepared in DMSO at a concentration of 1 mM. Serial dilutions were made to co-culture cells with a final concentration of 10 mM NS-398 in a 0.1% DMSO. […]
To further evaluate the expression of COX-2, samples of LPS stimulated PBMC's were evaluated from control and injured subjects as well as samples co-incubated with 10 μM NS-398.

[6] = C + NS398, 10 mg/kg i.p. BID for 7 days
[7] = T + NS398, 10 mg/kg i.p. BID for 7 days
[8] = injured mice + NS-398 over 7 days vs untreated injured, P<0.05

In the case of `CS(=O)(=O)Nc1ccc([N+](=O)[O-])cc1OC1CCCCC1` [NS-398, N-(2-cyclohexyloxy-4-nitrophenyl)methanesulfonamide], the survival ([1]; C + NS398, 10 mg/kg i.p. BID for 7 days, CLP on day 7) is reported as 0%, the survival ([1]; T + NS398, 10 mg/kg i.p. BID for 7 days, CLP on day 7) is reported as 45%* and the “survival (in words)” value ([1]; control+NS-398 mice after CLP) is reported as “died shortly after CLP”. For the same compound, the survival ([1]; trauma+NS-398 treated mice, after 200 hours after CLP) was 45%, the EP4 receptor expression (EP4 receptor) was “reversed; also recorded: restored” and the survival ([2]; T + NS, 3 i.p. injections of 10 mg/kg, CLP on day 7, n=10-12) was 92%#. For the same compound, the survival ([2]; control mice treated with NS-398) was 66%, the survival ([2]; traumatized mice treated with NS-398) was 92% and the “COX-2 mRNA levels relative to GAPDH” value (COX-2 mRNA [3]) was “attenuated the levels of COX-2 mRNA to below control levels”. The “COX-2 mRNA levels relative to GAPDH” value (COX-2 mRNA [3]; listed as NS398) was “significant decreases”, the TNF-α [4, 6] was 2.6 ± 0.3 pg/μg protein and the NO [4, 6] was 54.8 ± 2.1 nmol/μg protein. For the same compound, the “LTB4 levels (in words)” value ([4]; NS-398 given after injury, over 7 days) was “did not restore LTB4 levels to those seen in control”, the TNF-α [4, 7] was 2.6 ± 0.3 pg/μg protein and the NO [4, 7] was 48.0 ± 3.3 nmol/μg protein. For the same compound, the PGE2 production ([4]; injured mice + NS398 (TN), 10 mg/kg i.p. BID for 7 days) was 3.1±0.4 pg/μg protein, the “IL-6 production (in words)” value [4, 8] was “significantly attenuated production” and the “NO production (in words)” value [4, 8] was “significantly attenuated production”. The “TNF-α production (in words)” value [4, 8] was “significantly attenuated production”, the “PGE2 production by splenocytes/macrophages (in words)” value ([4]; traumatized mice + NS-398 over 7 days, P<0.05) was “produce significantly less PGE2” and the NF-κB activation (NF-κB) was “a decrease in NF-κB activation”. For the same compound, the “COX-2 mRNA levels” value (COX-2 mRNA [5]) was “decreased this induction” and the COX-2 expression (COX-2) was “reduced COX-2 expression to levels similar to that expressed by control cells”.

Reference: US20020006915A1, “Use of COX-2 inhibitors to treat sepsis, complications thereof, and EP receptor modulation” (priority 2000, published 2002)
